Reference: patent US20240368132A1, “ROCK2 INHIBITORS AND USES THEREOF” (President and Fellows of Harvard College, priority 2021, published 2024)

Columns and labels:
ROCK1 = target: T1, ROCK1 (Homo sapiens, UniProt Q13464); assay: ROCK1 kinase assay (Reaction Biology Hot Spot kinase assay); assay type: biochemical; details: purified kinase, 33P-ATP (10 μM), P81 filter-binding method
T1 construct: purchased Reaction Biology
Procedure: (§1) ROCK2 and ROCK] kinase assays
(§2) ROCK2 and ROCK1 enzyme potencies were determined by Reaction Biology (www.reactionbiology.com) using their Hot Spot kinase Assay. The base reaction buffer for the assay was 20 mM Hepes (pH 7.5), 10 mM MgCl2, 1 mM EGTA, 0.01% Brij35, 0.02 mg/mL BSA, 0.1 mM Na3VO4, and 2 mM DTT with a 1% DMSO concentration. Required cofactors were added individually to each kinase reaction. The substrate was freshly prepared in the reaction buffer described above, and then cofactors were delivered. The purified kinase was added to the substrate solution and then gently mixed. Compounds were added from 100% DMSO into the kinase reaction mixture by Acoustic technology (Echo550; nanoliter range) and then incubated for 20 min at room temperature. ^33P-ATP (10 μM) was delivered to initiate the reaction, and then the mixture was incubated again for two hours at room temperature. […] Nat. Biotechnol. 2011 Oct. 30; 29(11):1039-45. doi: 10.1038/nbt.2017.
(§3) The compounds were categorized based on IC50 value as “+”, “++”, “+++”, and “++++”. The category “+” refers to compounds with ROCK IC50 value of >10 μM. The category “++” refers to compounds with a ROCK IC50 value of 10 to 3 μM. The category “+++” refers to compounds with ROCK IC50 value of 3 to 0.3 μM. The category “++++” refers to compounds with a ROCK IC50 value of <0.3 μM. “ND” refers to “not determined.” The compound of an “Example Number” is the final product of an Example entitled the Example Number.

ROCK2 = target: T2, ROCK2 (Homo sapiens, UniProt O75116); assay: ROCK2 kinase assay (Reaction Biology Hot Spot kinase assay); assay type: biochemical; details: purified kinase, 33P-ATP (10 μM), P81 filter-binding method
T2 construct: purchased Reaction Biology
Procedure: as §1, §2, §3

T2 sequence (O75116 whole entry): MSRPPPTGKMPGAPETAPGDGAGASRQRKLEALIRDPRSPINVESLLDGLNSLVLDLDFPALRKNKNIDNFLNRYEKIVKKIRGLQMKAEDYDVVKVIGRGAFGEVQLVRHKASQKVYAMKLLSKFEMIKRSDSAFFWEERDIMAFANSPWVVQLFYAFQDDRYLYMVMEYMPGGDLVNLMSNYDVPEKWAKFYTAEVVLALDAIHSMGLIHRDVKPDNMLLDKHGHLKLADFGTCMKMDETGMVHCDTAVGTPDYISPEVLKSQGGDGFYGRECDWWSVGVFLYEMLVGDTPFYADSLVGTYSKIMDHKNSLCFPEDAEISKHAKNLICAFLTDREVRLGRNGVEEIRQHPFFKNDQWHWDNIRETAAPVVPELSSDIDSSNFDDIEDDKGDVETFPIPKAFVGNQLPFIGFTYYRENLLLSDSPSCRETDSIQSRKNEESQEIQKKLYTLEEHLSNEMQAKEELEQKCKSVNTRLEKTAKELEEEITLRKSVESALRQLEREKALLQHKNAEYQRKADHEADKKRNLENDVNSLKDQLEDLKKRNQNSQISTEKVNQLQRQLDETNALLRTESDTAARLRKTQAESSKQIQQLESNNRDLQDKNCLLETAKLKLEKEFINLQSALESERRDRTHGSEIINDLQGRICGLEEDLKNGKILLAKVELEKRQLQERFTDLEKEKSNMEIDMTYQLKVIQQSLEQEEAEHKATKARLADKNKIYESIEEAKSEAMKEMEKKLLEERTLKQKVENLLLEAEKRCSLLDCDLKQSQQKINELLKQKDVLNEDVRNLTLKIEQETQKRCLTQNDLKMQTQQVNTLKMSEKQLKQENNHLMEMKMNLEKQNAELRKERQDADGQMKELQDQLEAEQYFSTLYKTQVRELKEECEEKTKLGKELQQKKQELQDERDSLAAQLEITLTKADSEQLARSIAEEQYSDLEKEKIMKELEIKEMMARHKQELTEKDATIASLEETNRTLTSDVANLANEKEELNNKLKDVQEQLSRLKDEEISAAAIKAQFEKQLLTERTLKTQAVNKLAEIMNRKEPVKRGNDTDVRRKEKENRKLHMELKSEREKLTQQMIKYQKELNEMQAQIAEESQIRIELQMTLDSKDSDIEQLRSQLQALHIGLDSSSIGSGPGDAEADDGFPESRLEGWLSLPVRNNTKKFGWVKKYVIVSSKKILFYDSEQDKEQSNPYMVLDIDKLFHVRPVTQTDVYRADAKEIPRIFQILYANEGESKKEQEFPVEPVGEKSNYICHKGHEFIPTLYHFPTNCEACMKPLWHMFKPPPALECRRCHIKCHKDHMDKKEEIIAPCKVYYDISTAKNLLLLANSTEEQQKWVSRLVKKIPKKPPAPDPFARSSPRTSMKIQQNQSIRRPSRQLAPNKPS
T1 sequence (Q13464 whole entry): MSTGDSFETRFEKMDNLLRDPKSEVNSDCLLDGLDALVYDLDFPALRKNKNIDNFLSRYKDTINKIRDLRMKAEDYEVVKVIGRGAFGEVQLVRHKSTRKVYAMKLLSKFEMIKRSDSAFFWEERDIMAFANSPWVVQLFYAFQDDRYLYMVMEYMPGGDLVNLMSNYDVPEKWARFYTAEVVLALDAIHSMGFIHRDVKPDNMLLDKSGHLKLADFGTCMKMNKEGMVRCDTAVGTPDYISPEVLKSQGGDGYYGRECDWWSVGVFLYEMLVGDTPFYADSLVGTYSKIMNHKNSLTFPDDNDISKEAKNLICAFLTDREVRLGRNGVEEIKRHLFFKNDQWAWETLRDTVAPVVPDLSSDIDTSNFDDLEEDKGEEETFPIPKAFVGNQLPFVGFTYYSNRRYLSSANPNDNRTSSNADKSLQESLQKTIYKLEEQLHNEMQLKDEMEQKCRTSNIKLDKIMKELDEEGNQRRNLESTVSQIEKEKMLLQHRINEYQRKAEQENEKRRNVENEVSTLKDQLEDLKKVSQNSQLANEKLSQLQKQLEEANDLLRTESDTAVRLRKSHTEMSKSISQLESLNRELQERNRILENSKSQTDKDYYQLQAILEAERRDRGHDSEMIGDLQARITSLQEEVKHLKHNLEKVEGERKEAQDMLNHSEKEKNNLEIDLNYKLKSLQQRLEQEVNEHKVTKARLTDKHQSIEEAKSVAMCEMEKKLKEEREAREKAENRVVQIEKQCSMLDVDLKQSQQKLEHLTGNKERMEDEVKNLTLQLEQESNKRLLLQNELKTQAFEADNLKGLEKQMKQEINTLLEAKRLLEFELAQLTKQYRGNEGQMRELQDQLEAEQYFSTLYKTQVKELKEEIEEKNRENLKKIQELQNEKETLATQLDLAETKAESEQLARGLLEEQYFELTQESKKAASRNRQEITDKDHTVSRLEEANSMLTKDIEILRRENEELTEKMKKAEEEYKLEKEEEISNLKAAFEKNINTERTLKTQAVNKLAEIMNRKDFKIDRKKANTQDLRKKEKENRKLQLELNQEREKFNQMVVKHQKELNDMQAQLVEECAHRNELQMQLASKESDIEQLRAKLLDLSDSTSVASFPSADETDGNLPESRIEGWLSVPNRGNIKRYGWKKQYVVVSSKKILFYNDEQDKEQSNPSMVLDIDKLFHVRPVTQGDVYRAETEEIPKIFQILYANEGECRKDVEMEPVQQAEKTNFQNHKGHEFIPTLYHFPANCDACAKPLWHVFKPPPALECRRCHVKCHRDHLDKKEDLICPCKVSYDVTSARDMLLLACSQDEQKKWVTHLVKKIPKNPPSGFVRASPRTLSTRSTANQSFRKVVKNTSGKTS

IC50 (ROCK1) [nM] | IC50 (ROCK2) [nM] | Structure (SMILES)
< 300 | < 300 | Cn1cc(C(=O)Nc2cccc(-c3noc(Nc4ccc5[nH]ncc5c4)n3)c2)cn1 [Example 42]
< 300 | < 300 | Cn1cc(C(=O)Nc2cccc(-c3nc(Nc4ccc5[nH]ncc5c4Cl)no3)c2)cn1 [Example 63, N-(3-(3-((4-chloro-1H-indazol-5-yl)amino)-1,2,4-oxadiazol-5-yl)phenyl)-1-methyl-1H-pyrazole-4-carboxamide]
300 to 3000 | < 300 | Cc1cc(Nc2ccc3[nH]ncc3c2)nn1-c1cccc(NC(=O)c2cccnc2)c1 [Example 9]
300 to 3000 | < 300 | Cn1cc(-c2nc3cc(-n4ccc(Nc5ccc6[nH]ncc6c5Cl)n4)ccc3o2)cn1 [Example 65, 4-chloro-N-(1-(2-(1-methyl-1H-pyrazol-4-yl)benzo[d]oxazol-5-yl)-1H-pyrazol-3-yl)-1H-indazol-5-amine]
300 to 3000 | < 300 | COc1cc(-c2nc(Nc3ccc4[nH]ncc4c3Cl)no2)ccc1OCC(=O)NC(C)C [Example 73, 2-[4-[3-[(4-chloro-1H-indazol-5-yl)amino]-1,2,4-oxadiazol-5-yl]-2-methoxy-phenoxy]-N-isopropyl-acetamide]
< 300 | < 300 | Cc1coc(-c2cc(-c3nnc(Nc4ccc5[nH]ncc5c4Cl)o3)ccn2)n1 [Example 48, N-(4-chloro-1H-indazol-5-yl)-5-(2-(4-methyloxazol-2-yl)pyridin-4-yl)-1,3,4-oxadiazol-2-amine]
300 to 3000 | < 300 | Cn1cc(C(=O)Nc2cccc(-n3nc(Nc4ccc5[nH]ncc5c4Cl)c4ccccc43)c2)cn1 [Example 31]
> 10000 | > 10000 | O=C(Nc1cccc(-c2nnc(Nc3ccc4[nH]ncc4c3)o2)c1)c1cn[nH]c1 [Example 37]
> 10000 | > 10000 | Cn1cc(C(=O)Nc2cc(-n3nc(Nc4ccc5[nH]ncc5c4Cl)c4ccccc43)cn(C)c2=O)cn1 [Example 69]
> 10000 | > 10000 | Cn1cc(C(=O)Nc2cncc(-n3nc(Nc4ccc5[nH]ncc5c4Cl)c4ccccc43)c2)cn1 [Example 54, N-(5-(3-((4-chloro-1H-indazol-5-yl)amino)-1H-indazol-1-yl)pyridin-3-yl)-1-methyl-1H-pyrazole-4-carboxamide]
< 300 | < 300 | Cn1cc(C(=O)Nc2cccc(-c3cc(Nc4ccc5[nH]ncc5c4Cl)no3)c2)cn1 [Example 74, N-(3-(3-((4-chloro-1H-indazol-5-yl)amino)isoxazol-5-yl)phenyl)-1-methyl-1H-pyrazole-4-carboxamide]
> 10000 | < 300 | Cn1cc(C(=O)Nc2cccc(-n3nc(Nc4ccc5[nH]ncc5c4Cl)c4ccncc43)c2)cn1 [Example 59]
< 300 | < 300 | O=C(Nc1cccc(-c2noc(Nc3ccc4[nH]ncc4c3)n2)c1)c1cccnc1 [Example 44]
< 300 | < 300 | O=C(Nc1cccc(-c2nnc(Nc3ccc4[nH]ncc4c3)o2)c1)c1cccnc1 [Example 38]
< 300 | < 300 | Clc1c(Nc2nnc(-c3ccnc(-c4ncco4)c3)o2)ccc2[nH]ncc12 [Example 49]
3000 to 10000 | 300 to 3000 | COc1cc(-n2nc(Nc3ccc4[nH]ncc4c3Cl)c3ccccc32)ccc1OCC(=O)NC(C)C [Example 18]
> 10000 | 300 to 3000 | COc1cc(-n2nc(Nc3ccc4[nH]ncc4c3Cl)cc2C)ccc1OCC(=O)NC(C)C [Example 14]
3000 to 10000 | 300 to 3000 | O=C(Cc1ccccn1)Nc1cccc(-n2nc(Nc3ccc4[nH]ncc4c3)c3ccccc32)c1 [Example 26]
< 300 | < 300 | Cn1cc(C(=O)Nc2cccc(-c3cc(Nc4ccc5[nH]ncc5c4)no3)c2)cn1 [Example 33]
< 300 | < 300 | Cc1cn(-c2cccc(NC(=O)c3cnn(C)c3)c2)nc1Nc1ccc2[nH]ncc2c1 [Example 3, N-(3-(3-((1H-indazol-5-yl)amino)-4-methyl-1H-pyrazol-1-yl)phenyl)-1-methyl-1H-pyrazole-4-carboxamide]
< 300 | < 300 | Cc1cn(-c2ccc3c(c2)CCNC3=O)nc1Nc1ccc2[nH]ncc2c1Cl [Example 83, 6-(3-((4-chloro-1H-indazol-5-yl)amino)-4-methyl-1H-pyrazol-1-yl)-3,4-dihydroisoquinolin-1(2H)-one]

IC50 (ROCK1) [nM] | IC50 (ROCK2) [nM] | Structure (SMILES)
< 300 | < 300 | COc1cc(-n2cc(C)c(Nc3ccc4[nH]ncc4c3Cl)n2)ccc1C(=O)NC(C)C [Example 85, 4-(3-((4-chloro-1H-indazol-5-yl)amino)-4-methyl-1H-pyrazol-1-yl)-N-isopropyl-2-methoxybenzamide]
> 10000 | 300 to 3000 | COc1cc(-n2ccc(Nc3ccc4[nH]ncc4c3)n2)ccc1OCC(=O)NC(C)C [Example 11]
300 to 3000 | < 300 | O=C(Nc1cccc(-c2cc(Nc3ccc4[nH]ncc4c3)no2)c1)c1cccnc1 [Example 35]
300 to 3000 | < 300 | CC(C)NC(=O)COc1ccc(-n2ccc(Nc3ccc4[nH]ncc4c3Cl)n2)cc1F [Example 75, 2-(4-(3-((4-chloro-1H-indazol-5-yl)amino)-1H-pyrazol-1-yl)-2-fluorophenoxy)—N-isopropylacetamide]
< 300 | < 300 | COc1nc(-n2nc(Nc3ccc4[nH]ncc4c3Cl)c3ccccc32)ccc1OCC(=O)NC(C)C [Example 19]
< 300 | < 300 | Cn1cc(C(=O)Nc2cccc(-c3noc(Nc4ccc5[nH]ncc5c4Cl)n3)c2)cn1 [Example 62, N-(3-(5-((4-chloro-1H-indazol-5-yl)amino)-1,2,4-oxadiazol-3-yl)phenyl)-1-methyl-1H-pyrazole-4-carboxamide]
300 to 3000 | 300 to 3000 | COc1ncc(C(=O)Nc2cccc(-n3nc(Nc4ccc5[nH]ncc5c4)c4ccccc43)c2)cn1 [Example 25]
< 300 | < 300 | Cc1cn(-c2cccc(NC(=O)c3cccnc3)c2)nc1Nc1ccc2[nH]ncc2c1 [Example 4, N-(3-(3-((1H-indazol-5-yl)amino)-4-methyl-1H-pyrazol-1-yl)phenyl)nicotinamide]
< 300 | < 300 | Cn1cc(-c2nnc(Nc3ccc4[nH]ncc4c3Cl)o2)cc(NC(=O)c2ccccc2F)c1=O [Example 52, N-(5-(5-((4-chloro-1H-indazol-5-yl)amino)-1,3,4-oxadiazol-2-yl)-1-methyl-2-oxo-1,2-dihydropyridin-3-yl)-2-fluorobenzamide]
300 to 3000 | < 300 | COc1cc(-n2cc(C)c(Nc3ccc4[nH]ncc4c3Cl)n2)ccc1OCC(=O)NC(C)C [Example 13]
> 10000 | 300 to 3000 | COc1cc(-n2cc(C)c(Nc3ccc4[nH]ncc4c3Cl)n2)ccc1C(=O)N1CCCC1 [Example 89]
< 300 | < 300 | COc1cc(-n2cc(C)c(Nc3ccc4[nH]ncc4c3Cl)n2)ccc1C(=O)NC1CCN(C)C1 (stereo not shown) [Example 86]
< 300 | < 300 | O=C(Nc1cccc(-c2nc(Nc3ccc4[nH]ncc4c3)no2)c1)c1cn[nH]c1 [Example 40]
< 300 | < 300 | O=C(Nc1cccc(-c2cc(Nc3ccc4[nH]ncc4c3)no2)c1)c1c[nH]cn1 [Example 34, N-(3-(3-((1H-indazol-5-yl)amino)isoxazol-5-yl)phenyl)-1H-imidazole-4-carboxamide]
300 to 3000 | < 300 | Cc1cn(-c2ccc3c(c2)CCN(C(=O)NC(C)C)C3)nc1Nc1ccc2[nH]ncc2c1Cl [Example 78, 6-(3-((4-chloro-1H-indazol-5-yl)amino)-4-methyl-1H-pyrazol-1-yl)-N-isopropyl-3,4-dihydroisoquinoline-2(1H)-carboxamide]
< 300 | > 10000 | O=C(Nc1cccc(-c2noc(Nc3ccc4[nH]ncc4c3Cl)n2)c1)c1ccccc1F [Example 61, N-(3-(5-((4-chloro-1H-indazol-5-yl)amino)-1,2,4-oxadiazol-3-yl)phenyl)-2-fluorobenzamide]
< 300 | < 300 | Cn1cc(C(=O)Nc2cccc(-n3nc(Nc4ccc5[nH]ncc5c4Cl)c4cccnc43)c2)cn1 [Example 60]
3000 to 10000 | 300 to 3000 | Cc1cn(-c2ccc3c(c2)OCCN3CC(=O)NC(C)C)nc1Nc1ccc2[nH]ncc2c1Cl [Example 77, 2-[7-[3-[(4-chloro-1H-indazol-5-yl)amino]-4-methyl-pyrazol-1-yl]-2,3-dihydro-1,4-benzoxazin-4-yl]-N-isopropyl-acetamide]
< 300 | < 300 | Cn1cc(C(=O)Nc2cccc(-c3nc(Nc4ccc5[nH]ncc5c4)no3)c2)cn1 [Example 39]
> 10000 | 300 to 3000 | CC(C)NC(=O)COc1ccc(-n2nc(Nc3ccc4[nH]ncc4c3)c3ccccc32)cc1 [Example 16]
